{"source": "ChEMBL document CHEMBL5465560", "about": "“Selectivity Literature for EUbOPEN Chemogenomic Library” (2024)", "key": {"[1]": {"target": "SRSF protein kinase 3 (Homo sapiens) (UniProt Q9UPE1)", "test": "Selectivity interaction (Upstate Kinase Profiler service (Millipore)) EUB0000056c SRPK3", "conditions": "at 1 µM"}, "[2]": {"target": "Cyclin-dependent kinase 11A (Homo sapiens, UniProt Q9UQ88)", "sequence (Q9UQ88 whole entry)": "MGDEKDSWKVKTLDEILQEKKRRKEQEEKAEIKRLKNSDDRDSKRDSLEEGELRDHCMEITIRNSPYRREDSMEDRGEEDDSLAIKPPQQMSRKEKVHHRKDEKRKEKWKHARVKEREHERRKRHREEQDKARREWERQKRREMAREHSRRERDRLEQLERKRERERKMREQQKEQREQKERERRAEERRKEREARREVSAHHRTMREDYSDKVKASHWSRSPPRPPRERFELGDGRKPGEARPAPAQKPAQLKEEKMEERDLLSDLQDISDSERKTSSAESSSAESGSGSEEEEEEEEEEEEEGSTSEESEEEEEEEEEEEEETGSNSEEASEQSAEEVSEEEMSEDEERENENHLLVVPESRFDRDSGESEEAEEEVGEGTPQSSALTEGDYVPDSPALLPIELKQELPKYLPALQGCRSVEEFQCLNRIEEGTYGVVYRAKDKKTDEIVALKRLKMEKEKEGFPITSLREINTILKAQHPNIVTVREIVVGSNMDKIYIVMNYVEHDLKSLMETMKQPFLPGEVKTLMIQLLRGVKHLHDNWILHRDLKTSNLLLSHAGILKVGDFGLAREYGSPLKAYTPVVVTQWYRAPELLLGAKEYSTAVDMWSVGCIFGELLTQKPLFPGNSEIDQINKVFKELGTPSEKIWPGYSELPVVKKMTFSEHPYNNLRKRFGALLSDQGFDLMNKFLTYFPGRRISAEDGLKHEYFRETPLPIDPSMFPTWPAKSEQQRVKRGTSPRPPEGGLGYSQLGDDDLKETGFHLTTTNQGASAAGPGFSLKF", "test": "Selectivity interaction (Kinase panel (Invitrogen, enzymatic assay)) EUB0000162b CDK11A"}, "[3]": {"target": "Rho-associated protein kinase 1 (Homo sapiens) (UniProt Q13464)", "sequence (Q13464 2-1354 limits assumed)": "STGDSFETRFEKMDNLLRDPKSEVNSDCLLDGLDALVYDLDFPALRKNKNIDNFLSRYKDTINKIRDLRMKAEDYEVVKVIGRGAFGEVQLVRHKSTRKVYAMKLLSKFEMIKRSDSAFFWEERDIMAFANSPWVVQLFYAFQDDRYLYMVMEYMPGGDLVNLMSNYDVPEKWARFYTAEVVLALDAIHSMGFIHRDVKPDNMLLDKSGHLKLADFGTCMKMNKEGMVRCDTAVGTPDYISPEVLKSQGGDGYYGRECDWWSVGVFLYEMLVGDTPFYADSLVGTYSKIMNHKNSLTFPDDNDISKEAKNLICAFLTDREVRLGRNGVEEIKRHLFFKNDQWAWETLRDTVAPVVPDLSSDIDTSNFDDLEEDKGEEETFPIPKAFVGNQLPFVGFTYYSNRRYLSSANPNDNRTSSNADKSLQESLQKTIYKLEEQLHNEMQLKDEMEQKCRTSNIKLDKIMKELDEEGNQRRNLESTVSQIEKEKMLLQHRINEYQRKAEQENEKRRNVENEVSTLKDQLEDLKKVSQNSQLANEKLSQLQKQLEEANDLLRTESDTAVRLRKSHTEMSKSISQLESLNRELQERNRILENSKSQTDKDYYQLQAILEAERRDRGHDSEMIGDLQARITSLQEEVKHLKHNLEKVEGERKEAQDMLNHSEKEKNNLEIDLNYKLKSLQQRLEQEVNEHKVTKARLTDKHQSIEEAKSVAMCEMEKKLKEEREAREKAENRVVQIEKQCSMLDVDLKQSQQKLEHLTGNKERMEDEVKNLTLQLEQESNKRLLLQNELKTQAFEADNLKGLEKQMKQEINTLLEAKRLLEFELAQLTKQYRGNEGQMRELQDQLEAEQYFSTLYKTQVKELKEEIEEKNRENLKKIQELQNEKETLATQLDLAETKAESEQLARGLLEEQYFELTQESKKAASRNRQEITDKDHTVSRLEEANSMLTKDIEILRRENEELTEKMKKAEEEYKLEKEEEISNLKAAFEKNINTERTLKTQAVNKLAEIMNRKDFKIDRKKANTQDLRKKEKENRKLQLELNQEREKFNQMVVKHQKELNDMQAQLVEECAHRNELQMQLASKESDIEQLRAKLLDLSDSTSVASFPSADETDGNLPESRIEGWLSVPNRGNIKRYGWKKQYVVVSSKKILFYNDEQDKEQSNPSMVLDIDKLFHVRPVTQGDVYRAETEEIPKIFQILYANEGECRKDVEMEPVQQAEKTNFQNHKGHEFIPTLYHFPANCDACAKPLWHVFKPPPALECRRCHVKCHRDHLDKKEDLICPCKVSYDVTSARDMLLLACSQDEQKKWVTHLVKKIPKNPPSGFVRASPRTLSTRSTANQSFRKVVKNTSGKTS", "test": "Selectivity interaction (KinomeScan (DiscoverX)) EUB0001079a ROCK1", "conditions": "at 1 µM"}, "[4]": {"target": "Serine/threonine-protein kinase/endoribonuclease IRE1 (Homo sapiens) (UniProt O75460)", "test": "Selectivity interaction (KinomeScan (DiscoverX)) EUB0000666a ERN1", "conditions": "at 10 µM"}, "[5]": {"target": "Serine/threonine-protein kinase SIK2 (Homo sapiens) (UniProt Q9H0K1)", "conditions": "at 10 µM"}, "[6]": {"target": "CDK3/Cyclin E (Homo sapiens) (UniProt P24864+Q00526)", "test": "Selectivity interaction (LanthaScreen Eu Kinase Binding Assay) EUB0001632a CDK3", "format": "protein-complex assay", "conditions": "at 10 µM"}, "[7]": {"system": "Epidermal growth factor receptor (Homo sapiens), P00533 [UNDEFINED MUTATION]", "test": "Selectivity interaction (LanthaScreen Eu Kinase Binding Assay) EUB0001632a EGFR", "conditions": "at 10 µM"}, "[8]": {"target": "MAP kinase-interacting serine/threonine-protein kinase 1 (Homo sapiens) (UniProt Q9BUB5)", "sequence (Q9BUB5 whole entry, looked up)": "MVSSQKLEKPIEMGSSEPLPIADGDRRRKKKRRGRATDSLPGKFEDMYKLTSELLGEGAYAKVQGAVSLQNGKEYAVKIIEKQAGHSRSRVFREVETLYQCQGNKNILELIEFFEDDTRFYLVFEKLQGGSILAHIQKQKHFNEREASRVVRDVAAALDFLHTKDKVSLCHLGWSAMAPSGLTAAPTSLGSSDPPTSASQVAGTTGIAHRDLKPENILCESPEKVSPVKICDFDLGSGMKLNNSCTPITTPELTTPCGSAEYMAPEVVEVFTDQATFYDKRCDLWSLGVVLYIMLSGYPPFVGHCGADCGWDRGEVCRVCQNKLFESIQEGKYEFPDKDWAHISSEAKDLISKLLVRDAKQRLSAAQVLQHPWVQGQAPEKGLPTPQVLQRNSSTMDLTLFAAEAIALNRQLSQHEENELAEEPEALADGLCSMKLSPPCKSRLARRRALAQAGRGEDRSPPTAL", "test": "Selectivity interaction (Kinase panel (Z-LYTE Assay)) EUB0001632a MKNK1", "conditions": "at 10 µM"}, "[9]": {"target": "T1, Tyrosine-protein kinase SYK (Homo sapiens, UniProt P43405)", "test": "Selectivity interaction (ActivX KiNativ screen (kinase selectivity in THP-1 cell lysates)) EUB0000639a SYK", "format": "subcellular", "conditions": "lysate"}, "[10]": {"target": "Ribosomal protein S6 kinase beta-2 (Homo sapiens) (UniProt Q9UBS0)", "sequence (Q9UBS0 whole entry)": "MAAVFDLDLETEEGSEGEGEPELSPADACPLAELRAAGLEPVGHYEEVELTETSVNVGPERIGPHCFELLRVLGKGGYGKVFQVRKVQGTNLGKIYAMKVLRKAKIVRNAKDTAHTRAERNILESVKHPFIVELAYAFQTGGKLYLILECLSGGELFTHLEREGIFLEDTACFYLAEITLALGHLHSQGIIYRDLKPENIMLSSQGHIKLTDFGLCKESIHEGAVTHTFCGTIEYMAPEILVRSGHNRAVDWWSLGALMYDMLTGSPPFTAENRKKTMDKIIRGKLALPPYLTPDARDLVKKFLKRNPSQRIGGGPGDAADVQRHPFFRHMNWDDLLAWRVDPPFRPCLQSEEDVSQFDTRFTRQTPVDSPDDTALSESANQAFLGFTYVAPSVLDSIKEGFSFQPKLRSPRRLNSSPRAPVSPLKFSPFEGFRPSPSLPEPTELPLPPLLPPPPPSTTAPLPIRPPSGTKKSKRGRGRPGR", "test": "Selectivity interaction (ActivX KiNativ screen (kinase selectivity in THP-1 cell lysates)) EUB0000639a RPS6KB2", "format": "subcellular", "conditions": "lysate"}, "[11]": {"target": "Cyclin-dependent kinase 16 (Homo sapiens) (UniProt Q00536)", "test": "Selectivity interaction (ActivX KiNativ screen (kinase selectivity in THP-1 cell lysates)) EUB0000639a CDK16", "format": "subcellular", "conditions": "lysate, at 5 µM"}, "[12]": {"target": "Cyclin-dependent kinase 5/CDK5 activator 1 (Homo sapiens) (UniProt Q00535+Q15078)", "sequence (Q00535 whole entry)": "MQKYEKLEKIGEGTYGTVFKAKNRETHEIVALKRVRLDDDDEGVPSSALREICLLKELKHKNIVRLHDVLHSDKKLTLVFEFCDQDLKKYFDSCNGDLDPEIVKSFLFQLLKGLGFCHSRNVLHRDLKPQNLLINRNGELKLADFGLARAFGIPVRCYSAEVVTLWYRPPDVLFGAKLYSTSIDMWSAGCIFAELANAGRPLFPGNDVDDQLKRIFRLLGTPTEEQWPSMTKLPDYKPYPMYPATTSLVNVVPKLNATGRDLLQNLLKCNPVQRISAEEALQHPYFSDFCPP", "sequence (Q15078 99-307 partner limits assumed)": "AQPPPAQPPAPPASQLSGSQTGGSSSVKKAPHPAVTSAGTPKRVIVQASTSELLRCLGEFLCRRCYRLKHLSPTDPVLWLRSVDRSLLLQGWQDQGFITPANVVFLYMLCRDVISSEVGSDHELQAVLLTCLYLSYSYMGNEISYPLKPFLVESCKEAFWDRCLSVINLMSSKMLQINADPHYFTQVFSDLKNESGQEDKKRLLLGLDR", "test": "Selectivity interaction (SelectScreen profiling (Invitrogen)) EUB0000607a CDK5", "format": "protein-complex assay", "conditions": "at 2 µM"}, "[13]": {"target": "T2, Dual specificity tyrosine-phosphorylation-regulated kinase 2 (Homo sapiens) (UniProt Q92630)", "T2 sequence (whole entry)": "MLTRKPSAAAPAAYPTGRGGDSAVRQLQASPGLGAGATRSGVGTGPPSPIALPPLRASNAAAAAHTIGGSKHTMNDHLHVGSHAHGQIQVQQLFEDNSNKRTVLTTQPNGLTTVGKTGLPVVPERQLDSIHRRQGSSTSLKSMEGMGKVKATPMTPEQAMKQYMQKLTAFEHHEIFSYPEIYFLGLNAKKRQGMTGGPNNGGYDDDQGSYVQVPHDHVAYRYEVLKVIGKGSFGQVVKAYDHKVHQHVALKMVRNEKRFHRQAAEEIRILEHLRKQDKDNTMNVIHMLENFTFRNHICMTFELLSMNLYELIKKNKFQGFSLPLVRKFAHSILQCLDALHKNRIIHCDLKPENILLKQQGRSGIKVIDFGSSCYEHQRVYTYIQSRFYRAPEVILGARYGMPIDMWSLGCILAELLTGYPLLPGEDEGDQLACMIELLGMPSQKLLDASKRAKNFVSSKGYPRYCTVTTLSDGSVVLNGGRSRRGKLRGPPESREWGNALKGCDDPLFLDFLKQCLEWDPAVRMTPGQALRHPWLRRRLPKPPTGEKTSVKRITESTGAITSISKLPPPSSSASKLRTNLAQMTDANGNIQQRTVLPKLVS", "test": "Selectivity interaction (KinomeScan (DiscoverX)) EUB0000607a DYRK2", "conditions": "at 10 µM"}, "[14]": {"target": "Mitogen-activated protein kinase 14 (Homo sapiens, UniProt Q16539)", "test": "Selectivity interaction (Ambit KINOMEscan and KiNATiv profiling in Jurkat cells) EUB0000090b MAPK14", "format": "cell-based", "conditions": "at 1 µM"}, "[15]": {"target": "Dual specificity protein kinase CLK2 (Homo sapiens, UniProt P49760)", "test": "Selectivity interaction (Ambit KINOMEscan and KiNATiv profiling in Jurkat cells) EUB0000090b CLK2", "format": "cell-based", "conditions": "at 1 µM"}, "[16]": {"target": "Fibroblast growth factor receptor 3 (Homo sapiens, UniProt P22607)", "sequence (P22607 23-806 limits assumed)": "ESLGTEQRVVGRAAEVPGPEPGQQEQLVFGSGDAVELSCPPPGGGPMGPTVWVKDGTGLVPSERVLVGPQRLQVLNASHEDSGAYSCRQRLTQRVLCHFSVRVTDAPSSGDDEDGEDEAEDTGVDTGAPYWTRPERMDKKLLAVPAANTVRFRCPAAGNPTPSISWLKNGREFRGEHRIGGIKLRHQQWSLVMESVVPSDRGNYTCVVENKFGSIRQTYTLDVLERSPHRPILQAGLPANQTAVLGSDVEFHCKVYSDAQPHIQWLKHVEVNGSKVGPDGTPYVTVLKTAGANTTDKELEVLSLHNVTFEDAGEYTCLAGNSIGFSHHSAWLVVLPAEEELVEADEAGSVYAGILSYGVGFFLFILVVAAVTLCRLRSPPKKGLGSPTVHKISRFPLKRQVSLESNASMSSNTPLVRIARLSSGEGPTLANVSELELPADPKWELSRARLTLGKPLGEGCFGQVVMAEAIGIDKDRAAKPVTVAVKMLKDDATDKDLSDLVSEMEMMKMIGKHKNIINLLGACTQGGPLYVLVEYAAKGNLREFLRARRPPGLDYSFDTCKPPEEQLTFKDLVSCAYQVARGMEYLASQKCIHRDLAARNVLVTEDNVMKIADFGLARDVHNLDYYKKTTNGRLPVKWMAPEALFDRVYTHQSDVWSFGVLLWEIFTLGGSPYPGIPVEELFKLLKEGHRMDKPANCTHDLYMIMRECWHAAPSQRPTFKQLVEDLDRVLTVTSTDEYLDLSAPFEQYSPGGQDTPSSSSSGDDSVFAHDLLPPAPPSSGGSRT", "test": "Selectivity interaction (Kinase screening (Nanosyn)) EUB0000604a FGFR3"}, "[17]": {"target": "T1, Tyrosine-protein kinase SYK", "test": "Selectivity interaction (ActivX KiNativ screen (ex vivo kinase selectivity in human PBMCs)) EUB0001619a SYK", "format": "cell-based", "conditions": "PBMC, at 1 µM"}, "[18]": {"target": "T3, Tyrosine-protein kinase ZAP-70 (Homo sapiens) (UniProt P43403)", "T3 sequence (whole entry)": "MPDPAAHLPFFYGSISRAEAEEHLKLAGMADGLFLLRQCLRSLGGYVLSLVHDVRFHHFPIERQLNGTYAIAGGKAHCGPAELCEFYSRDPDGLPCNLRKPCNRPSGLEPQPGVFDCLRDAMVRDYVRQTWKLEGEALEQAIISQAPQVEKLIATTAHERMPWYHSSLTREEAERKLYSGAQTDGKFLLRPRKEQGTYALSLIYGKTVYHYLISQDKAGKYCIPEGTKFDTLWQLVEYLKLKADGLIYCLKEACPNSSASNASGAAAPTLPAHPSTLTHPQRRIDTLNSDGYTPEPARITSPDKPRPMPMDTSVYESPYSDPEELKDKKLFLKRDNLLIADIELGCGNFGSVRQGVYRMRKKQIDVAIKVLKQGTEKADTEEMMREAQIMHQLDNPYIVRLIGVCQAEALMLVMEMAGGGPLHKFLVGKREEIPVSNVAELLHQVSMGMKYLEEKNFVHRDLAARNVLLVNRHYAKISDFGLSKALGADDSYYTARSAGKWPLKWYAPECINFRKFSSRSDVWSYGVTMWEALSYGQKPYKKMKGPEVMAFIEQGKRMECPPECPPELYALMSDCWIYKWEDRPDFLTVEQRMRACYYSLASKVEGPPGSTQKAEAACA", "test": "Selectivity interaction (ActivX KiNativ screen (ex vivo kinase selectivity in human PBMCs)) EUB0001619a ZAP70", "format": "cell-based", "conditions": "PBMC, at 1 µM"}, "[19]": {"target": "Serine/threonine-protein kinase Nek6 (Homo sapiens) (UniProt Q9HC98)", "sequence (Q9HC98 whole entry)": "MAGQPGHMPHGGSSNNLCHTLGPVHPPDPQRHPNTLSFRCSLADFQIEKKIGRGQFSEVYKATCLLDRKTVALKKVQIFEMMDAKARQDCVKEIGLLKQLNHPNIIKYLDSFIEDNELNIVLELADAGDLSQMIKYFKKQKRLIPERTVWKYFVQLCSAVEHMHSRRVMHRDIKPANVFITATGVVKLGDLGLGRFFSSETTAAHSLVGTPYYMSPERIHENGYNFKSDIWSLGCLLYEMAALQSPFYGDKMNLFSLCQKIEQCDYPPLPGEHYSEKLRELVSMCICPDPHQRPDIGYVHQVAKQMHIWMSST", "test": "Selectivity interaction (ActivX KiNativ screen (ex vivo kinase selectivity in human PBMCs)) EUB0001619a NEK6", "format": "cell-based", "conditions": "PBMC, at 1 µM"}}, "note": "pIC50: −log10 of the molar value."}
{"compound": "Cc1ccc(-c2ccc3c(ccc4sc5c(c43)NC[C@@H](C)NC5=O)n2)cn1", "values": [{"measurement": "% of inhibition", "setting": "[1]", "value": 36, "unit": "%"}]}
{"compound": "CN(C)C(=O)Cn1cc(-c2ccc(-c3cncc4ccccc34)cc2)cn1", "values": [{"measurement": "pIC50", "setting": "[2]", "value": 8.77}]}
{"compound": "Nc1cnc(N2CCc3cc(S(=O)(=O)Nc4c(F)cc(Cl)cc4F)cc(N4CCCC4=O)c32)nc1", "note": "[TP-020n]", "values": [{"measurement": "% of control", "setting": "[3]", "value": 96, "unit": "%"}]}
{"compound": "O=C(NOC[C@H](O)CO)c1ccc(F)c(F)c1Nc1ccc(I)cc1F", "values": [{"measurement": "% of control", "setting": "[4]", "value": 97, "unit": "%"}]}
{"compound": "Cc1cc([C@@H](C)Nc2ccccc2C(=O)O)c2nc(N3CCOCC3)cc(=O)n2c1", "note": "[AZD-6482]", "values": [{"measurement": "% of control", "setting": "[5]", "value": 100, "unit": "%"}]}
{"compound": "Cn1cc(-n2cnc3c(NCc4nc5cc(Cl)c(Cl)cc5[nH]4)nc(N4CCOCC4)nc32)cn1", "values": [{"measurement": "% of inhibition", "setting": "[6]", "value": -151, "unit": "%"}, {"measurement": "% of inhibition", "setting": "[7]", "value": -12, "unit": "%"}, {"measurement": "% of control", "setting": "[8]", "value": 2.99, "unit": "%"}]}
{"compound": "CC[C@@H]1[C@H](F)C(=O)N[C@@H]1COc1nccc2cc(C(N)=O)c(OC)cc12", "note": "[ZIMLOVISERTIB]", "values": [{"measurement": "% of inhibition", "setting": "[9]; at 0.01 µM", "value": 3.2, "unit": "%"}, {"measurement": "% of inhibition", "setting": "[9]; at 0.04 µM", "value": 14.7, "unit": "%"}, {"measurement": "% of inhibition", "setting": "[9]; at 0.2 µM", "value": 7.1, "unit": "%"}, {"measurement": "% of inhibition", "setting": "[9]; at 1 µM", "value": 16.1, "unit": "%"}, {"measurement": "% of inhibition", "setting": "[9]; at 5 µM", "value": 2.5, "unit": "%"}, {"measurement": "% of inhibition", "setting": "[10]; at 0.01 µM", "value": -0.4, "unit": "%"}, {"measurement": "% of inhibition", "setting": "[10]; at 0.04 µM", "value": 9.9, "unit": "%"}, {"measurement": "% of inhibition", "setting": "[10]; at 0.2 µM", "value": -6.2, "unit": "%"}, {"measurement": "% of inhibition", "setting": "[10]; at 1 µM", "value": -5.5, "unit": "%"}, {"measurement": "% of inhibition", "setting": "[10]; at 5 µM", "value": 3.9, "unit": "%"}, {"measurement": "% of inhibition", "setting": "[11]", "value": 41.7, "unit": "%"}]}
{"compound": "CNC(=O)Nc1ccc(-c2nc(N3CC4CCC(C3)O4)c3cnn(C4CCC5(CC4)OCCO5)c3n2)cc1", "values": [{"measurement": "% of inhibition", "setting": "[12]", "value": 1, "unit": "%"}, {"measurement": "% of control", "setting": "[13]", "value": 90, "unit": "%"}]}
{"compound": "CN(C)C/C=C/C(=O)Nc1ccc(C(=O)N2CCCC(Nc3ncc(Cl)c(-c4c[nH]c5ccccc45)n3)C2)cc1", "note": "(configuration not stated)", "values": [{"measurement": "% of control", "setting": "[14]", "value": 92, "unit": "%"}, {"measurement": "% of control", "setting": "[15]", "value": 55, "unit": "%"}]}
{"compound": "Cc1cnc(Nc2ccc(F)cc2Cl)nc1-c1c[nH]c(C(=O)N[C@H](CO)c2cccc(Cl)c2)c1", "values": [{"measurement": "% of inhibition", "setting": "[16]", "value": 8, "unit": "%"}]}
{"compound": "N#Cc1cccc(-c2c[nH]c3ncnc(N4CCOCC4)c23)c1", "values": [{"measurement": "% of inhibition", "setting": "[17]", "value": 7, "unit": "%"}, {"measurement": "% of inhibition", "setting": "[18]", "value": -3, "unit": "%"}, {"measurement": "% of inhibition", "setting": "[19]", "value": -5, "unit": "%"}]}
